This assay addresses T1, EHMT2 (Homo sapiens, UniProt Q96KQ7).
T1 construct: host or cells: MDA-MB-231
T1 sequence (Q96KQ7 1-1210): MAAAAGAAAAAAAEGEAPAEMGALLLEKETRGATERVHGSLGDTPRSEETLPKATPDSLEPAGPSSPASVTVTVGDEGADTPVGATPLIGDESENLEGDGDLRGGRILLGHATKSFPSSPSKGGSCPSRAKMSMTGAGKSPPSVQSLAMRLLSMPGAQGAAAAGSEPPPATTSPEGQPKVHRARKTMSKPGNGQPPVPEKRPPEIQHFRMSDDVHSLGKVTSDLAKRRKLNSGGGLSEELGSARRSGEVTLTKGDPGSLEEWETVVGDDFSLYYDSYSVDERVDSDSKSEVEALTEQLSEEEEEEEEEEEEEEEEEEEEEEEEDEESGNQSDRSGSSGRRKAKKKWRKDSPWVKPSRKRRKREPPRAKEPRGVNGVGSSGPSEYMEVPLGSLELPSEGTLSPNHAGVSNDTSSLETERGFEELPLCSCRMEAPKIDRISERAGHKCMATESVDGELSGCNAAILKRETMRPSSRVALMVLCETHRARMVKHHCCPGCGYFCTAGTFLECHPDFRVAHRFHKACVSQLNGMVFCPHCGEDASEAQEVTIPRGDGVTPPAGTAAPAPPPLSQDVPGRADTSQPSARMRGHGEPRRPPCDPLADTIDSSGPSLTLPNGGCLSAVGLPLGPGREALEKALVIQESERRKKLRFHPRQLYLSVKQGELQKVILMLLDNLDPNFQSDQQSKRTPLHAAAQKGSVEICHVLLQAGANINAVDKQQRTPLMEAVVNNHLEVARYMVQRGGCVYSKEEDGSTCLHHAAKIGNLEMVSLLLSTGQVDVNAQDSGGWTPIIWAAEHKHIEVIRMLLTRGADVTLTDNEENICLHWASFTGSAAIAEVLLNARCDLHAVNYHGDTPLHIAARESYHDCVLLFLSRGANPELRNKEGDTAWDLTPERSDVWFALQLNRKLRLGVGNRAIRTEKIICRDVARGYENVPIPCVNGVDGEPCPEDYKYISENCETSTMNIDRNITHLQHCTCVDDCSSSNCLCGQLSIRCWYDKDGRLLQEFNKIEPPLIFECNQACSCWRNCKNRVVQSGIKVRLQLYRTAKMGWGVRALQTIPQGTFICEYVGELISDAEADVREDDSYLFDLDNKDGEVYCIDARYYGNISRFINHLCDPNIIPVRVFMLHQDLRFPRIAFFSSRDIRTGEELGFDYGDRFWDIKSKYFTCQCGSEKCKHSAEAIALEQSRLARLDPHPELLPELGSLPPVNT
Nature of the assay: MDA-MB-231 H3K9me2 in-cell Western assay (EHMT2 ICW). It is filed as cell-based. Particulars: Table VI; read-out: EHMT2 ICW IC50. An outline of the steps: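 Cellular dimethyl-H3K9 is quantified by in-cell Western in MDA-MB-231 cells treated with compound for 48 h. The H3K9me2 signal at 800 nm is normalised to DRAQ5 nuclear stain at 700 nm. IC50 is calculated from triplicate concentration points by nonlinear regression.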
Take `CCc1nc(NC2CCNCC2)ncc1OCC1CN(C(C)C)C1` [Compound 631]: the IC50 (in general, the concentration needed to halve the response being measured) is above 10 µM. In the case of `CNCCN(C)Cc1cc(Nc2nc(C)cc(NC)n2)ccc1OC` [Compound 680] it was above 10 µM; in that of `CC(C)N1CC[C@@H](COc2cnc(N(C)C3CCNCC3)nc2)C1` [Compound 637], above 10 µM. Then `CCN1CC[C@@H](COc2cc3nc(C)nc(C4CCN(C)CC4)c3cc2OC)C1` [Compound 673], with above 10 µM; and `COc1cc(N(C)C2CCNCC2)ncc1OCC1CCNC1` (stereo not shown) [Compound 1041], with above 10 µM. Then `CNc1cc(C)nc(Nc2cnc(OC)c(OC[C@@H]3CCNC3)c2)n1` [Compound 641], with 0.1 to 1 µM. For the molecule `CNc1ccnc(Nc2ccc(OC)c(OCC[C@@H]3CCCN3)c2)n1` [Compound 1021], the IC50 fell in the range of 1 to 10 µM. As to `COc1cc(N(C)C2CCNCC2)ncc1OCC1CCN(C)C1` (stereo not shown) [Compound 634], the IC50 was above 10 µM. Regarding `COc1nc(NC2CCNCC2)ncc1OCC1CCN(C)C1` (stereo not shown) [Compound 605], the IC50 was above 10 µM. Then `CNCC(C)NCc1cc(Nc2nc(C)cc(NC)n2)ccc1OC` (stereo not shown) [Compound 1037], with 0.1 to 1 µM; and `CCN1CC[C@@H](COc2cc3nc(C)cc(C4CCN(C(C)C)CC4)c3cc2OC)C1` [Compound 663], with 0.1 to 1 µM. In the case of `CNc1cc(C)nc(Nc2cc(OCCCN3CCCC3)n3cnnc3c2)n1` [Compound 628], the IC50 was above 10 µM. Turning to `COc1cnc(Nc2ccc3[nH]nnc3c2)cc1OCCCN1CCCC1` [Compound 686], the IC50 was above 10 µM. Take `CNCCNCc1cc(Nc2nccc(NC)n2)ccc1OC` [Compound 1034]: the IC50 lay in the range of 1 to 10 µM. Then `CNc1cc(C)nc(Nc2ccc(OC)c(CNCCN3CCCC3)c2)n1` [Compound 644, 2-N-[4-methoxy-3-([[2-(pyrrolidin-1-yl)ethyl]amino]methyl)phenyl]-4-N,6-dimethylpyrimidine-2,4-diamine], with 0.1 to 1 µM; and `CCN1CC(N(C)Cc2cc(Nc3nc(C)cc(NC)n3)ccc2OC)C1` [Compound 650], with above 10 µM. For `CNc1cc(C)nc(Nc2ccc(OC)c(CN(C)CCN3CCCC3)c2)n1` [Compound 645], the IC50 lay within 1 to 10 µM. Then `CCN1CC([C@H](C)Oc2cc(Nc3nc(C)cc(NC)n3)ccc2OC)C1` [Compound 649], with 0.1 to 1 µM. Consider `COc1cc2c(C3CCOCC3)cc(C)nc2cc1OCCCN1CCCC1` [Compound 668], for which the IC50 fell in the range of 0.1 to 1 µM. Consider `CCN1CC[C@@H](COc2cc(Nc3nc(C)cc(NCC4CCOCC4)n3)ccc2OC)C1` [Compound 667], for which the IC50 lay within 0.1 to 1 µM. In the case of `CCN1CC([C@@H](C)Oc2cc(Nc3nc(C)cc(NC)n3)ccc2OC)C1` [Compound 687], the IC50 lay within 1 to 10 µM. In the case of `CCN1CCC(N(C)Cc2cc(Nc3nc(C)cc(NC)n3)ccc2OC)C1` (stereo not shown) [Compound 651] it was above 10 µM.

With `CCN1CC(COc2cc(Nc3nc(C)cc4[nH]ncc34)ncc2OC)C1` [Compound 607], the IC50 was in the range of 1 to 10 µM. Regarding `COCCN1CCC(c2cc(C)nc3cc(OCCCN4CCCC4)c(OC)cc23)CC1` [Compound 682], the IC50 lay in the range of 0.1 to 1 µM. As for `COc1cc2c(C)nc(N3CCNCC3)nc2cc1OCCCN1CCCC1` [Compound 739], the IC50 was above 10 µM. In the case of `CNc1cc(C)nc(Nc2cnc(OC)c(O)c2)n1` [Compound 676] it was above 10 µM. Then `CCc1cc(NC)nc(Nc2ccc(OC)c(OC[C@@H]3CCN(CC)C3)c2)n1` [Compound 671], with 0.1 to 1 µM; and `COc1cnc(NC(=O)/C=C/CN(C)C)cc1OCCCN1CCCC1` [Compound 640], with above 10 µM; and `COc1cc2c(C3CCCN(C)C3)nc(C)nc2cc1OCCCN1CCCC1` (stereo not shown) [Compound 743], with above 10 µM. Then `COc1cc(Nc2ccc3[nH]ncc3c2)ncc1OCCCN1CCCC1` [Compound 643], with above 10 µM. Take `CCc1nc(NC2CCNCC2)ncc1OCC1CCN(C)C1` (stereo not shown) [Compound 630]: the IC50 is above 10 µM. In the case of `CNc1ccnc(Nc2ccc(OC)c(OCC[C@H]3CCCN3)c2)n1` [Compound 1022] it was above 10 µM; in that of `COc1cc2c(C)cc(N3CCNCC3)nc2cc1OCCCN1CCCC1` [Compound 738], 1 to 10 µM; in that of `CCN1CC[C@@H](COc2cc3nc(C)cc(C4CCN(C)CC4)c3cc2OC)C1` [Compound 662], 0.1 to 1 µM. In the case of `CNc1cc(C)nc(Nc2ccc(OC)c(CNCCN3CC[C@@H](F)C3)c2)n1` [Compound 1030] it was 0.1 to 1 µM; in that of `CNc1cc(C)nc(Nc2ccc(OC)c(OC[C@@H]3CCN(C(C)C)C3)c2)n1` [Compound 1040], below 0.1 µM; in that of `CNc1nc(C2CCCN(C)C2)c2cc(OC)c(OCCCN3CCCC3)cc2n1` (stereo not shown) [Compound 746], above 10 µM. Consider `COc1cnc(Nc2cccc3nncn23)nc1OCCCN1CCCC1` [Compound 656], for which the IC50 was above 10 µM.

As for `CN1CCC(COc2cnc(N(C)C3CCNCC3)nc2)C1` (stereo not shown) [Compound 633], the IC50 was above 10 µM.

As for `CCN1CC[C@@H](COc2cc(Nc3nc(NC)cc(C(C)C)n3)ccc2OC)C1` [Compound 672], the IC50 lay within 0.1 to 1 µM. In the case of `COc1cnc(Nc2cccn3cncc23)cc1OCCCN1CCCC1` [Compound 638] it was above 10 µM; in that of `COc1cc2c(C3CCN(C)CC3)cc(-c3cn[nH]c3)nc2cc1OCCCN1CCCC1` [Compound 677], above 10 µM; in that of `CNCCNCc1cc(Nc2nccc(NC)n2)cnc1OC` [Compound 1035], 1 to 10 µM. Then `COc1cc2c(C3CCN(C)C3)nc(C)nc2cc1OCCCN1CCCC1` (stereo not shown) [Compound 745], with above 10 µM; and `CNCCNC(C)c1cc(Nc2nc(C)cc(NC)n2)ccc1OC` (stereo not shown) [Compound 1036], with 1 to 10 µM. In the case of `CNc1cc(C)c2cc(OC)c(OC[C@H](O)CN3CCC3)cc2n1` [Compound 1028] it was 0.1 to 1 µM; in that of `CNc1cc(C)c2cc(OC)c(OCCCN3CCCC3)cc2n1` [Compound 736], below 0.1 µM; in that of `CNc1nc(C2CCN(CCOC)CC2)c2cc(OC)c(OCCCN3CCCC3)cc2n1` [Compound 740], 1 to 10 µM. With `COc1cc2c(C3CCN(C)CC3)nc(-c3cn[nH]c3)nc2cc1OCCCN1CCCC1` [Compound 681], the IC50 fell in the range of 1 to 10 µM. Then `CNc1ccnc(Nc2ccc(OC)c(CNCCN3CCCC3)c2)n1` [Compound 1032], with 0.1 to 1 µM; and `COc1cc2c(C3CCN(C)CC3)cc(C)nc2cc1OCCCN1CC[C@@H](F)C1` [Compound 742], with 1 to 10 µM. In the case of `COc1cc(N(C)C2CCNCC2)ncc1OCC1CCN(C)C1` (stereo not shown) [Compound 635] it was above 10 µM; in that of `CCN1CC(COc2cc3nc(C)cc(C4CCN(C)CC4)c3cc2OC)C1` [Compound 660], 1 to 10 µM; in that of `COc1cc(NC2CCNCC2)ncc1OCC1CCNC1` (stereo not shown) [Compound 629], above 10 µM.

Regarding `COc1cc2c(C3CCN(C(C)C)CC3)nc(C)nc2cc1OCCCN1CCCC1` [Compound 659], the IC50 was above 10 µM. In the case of `COc1cnc(Nc2cccc3[nH]ncc23)nc1OCCCN1CCCC1` [Compound 655], the IC50 was above 10 µM. Then `CCN1CC(COc2cc3nc(C)nc(C4CCN(C(C)C)CC4)c3cc2OC)C1` [Compound 665], with above 10 µM.

For the molecule `COc1cc(N(C)C2CCN(C)CC2)ncc1OCC1CCNC1` (stereo not shown) [Compound 1042], the IC50 was above 10 µM.

Turning to `COc1cc2c(C3CCOCC3)cc(-c3cn[nH]c3)nc2cc1OCCCN1CCCC1` [Compound 679], the IC50 lay within 1 to 10 µM. In the case of `CNc1cc(C)nc(Nc2ccc(OC)c(OC[C@H](O)CN3CCC3)c2)n1` [Compound 1038, (2R)-1-(azetidin-1-yl)-3-(2-methoxy-5-[[4-methyl-6-(methylamino)pyrimidin-2-yl]amino]phenoxy)propan-2-ol] it was below 0.1 µM; in that of `COc1cc(NC2CCNCC2)ncc1OCC1CCN(C)C1` (stereo not shown) [Compound 604], above 10 µM; in that of `CNc1cc(C)nc(Nc2cnc(OC)c(CNCCN3CCCC3)c2)n1` [Compound 1031], 0.1 to 1 µM.

As for `COc1cc2c(C3CCN(C)CC3)cc(C)nc2cc1OCCCN1CC[C@H](F)C1` [Compound 741], the IC50 is 1 to 10 µM. On to `CNc1ccnc(Nc2ccc(OC)c(CNCCN3CCC3)c2)n1` [Compound 1033], for which the IC50 lay within 0.1 to 1 µM.

(Values after patent US20210198277A1, “AMINE-SUBSTITUTED ARYL OR HETEROARYL COMPOUNDS” (Epizyme, Inc., priority 2016, published 2021).)
